# Measurements as given in patent US20230131402A1, “SPIRO-LACTAM NMDA RECEPTOR MODULATORS AND USES THEREOF” (Aptinyx Inc., priority 2016, published 2023).
# Read-outs that look alike come from different tables or passages of the source.
# Assays:
# IV pharmacokinetics = type: in vivo, Sprague Dawley rats; conditions: rat, 2 mg/kg, normal saline (compounds marked * in 1% NMP and 99% normal saline); for Vd: read-out: Vss
# From the text: The table below summarizes the results of the IV pharmacokinetics.
# NMDAR2C = molecular target: T1, NMDAR2C (Homo sapiens, UniProt Q14957); test: [3H]MK-801 binding, NMDAR2C expressing HEK cell membranes; type: biochemical; conditions: 50 μM glutamate; for EC50: read-out: NMDAR2C B: log EC50 (converted)
# T1 construct: expressed in transfected cells; host or cells: HEK cells (membrane extract)
# Protocol: (§1) Assays were conducted as described by Moskal et al., “GLYX-13: a monoclonal antibody-derived peptide that acts as an N-methyl-D-aspartate receptor modulator,” Neuropharmacology, 49, 1077-87, 2005. These studies were designed to determine if the test compounds act to facilitate NMDAR activation in NMDAR2A, NMDAR2B, NMDAR2C or NMDAR2D expressing HEK cell membranes as measured by increases in [^3H]MK-801 binding.
# (§2) In the assay, 300 μg of NMDAR expressing HEK cell membrane extract protein was preincubated for 15 minutes at 25° C. in the presence of saturating concentrations of glutamate (50 μM) and varying concentrations of test compound (1×10^−15M−1×10^−7M), or 1 mM glycine. Following the addition of 0.3 μCi of [^3H]MK-801 (22.5 Ci/mmol), reactions were again incubated for 15 minutes at 25° C. (nonequilibrium conditions). Bound and free [^3H]MK-801 were separated via rapid filtration using a Brandel apparatus.
# (§3) In analyzing the data, the DPM (disintegrations per minute) of [^3H]MK-801 remaining on the filter were measured for each concentration of test compound or for 1 mM glycine. The DPM values for each concentration of a ligand (N=2) were averaged. The baseline value was determined from the best fit curve of the DPM values modeled using the GraphPad program and the log(agonist) vs. response(three parameters) algorithm was then subtracted from all points in the dataset. The % maximal [^3H]MK-801 binding was then calculated relative to that of 1 mM glycine: all baseline subtracted DPM values were divided by the average value for 1 mM glycine. The EC50 and % maximal activity were then obtained from the best fit curve of the % maximal [^3H]MK-801 binding data modelled using the GraphPad program and the log(agonist) vs. response(three parameters) algorithm.
# (§4) The tables below summarize the results for the wild type NMDAR agonists NMDAR2A, NMDAR2B, NMDAR2C, and NMDAR2D, and whether the compound is not an agonist (−), is an agonist (+), or is a strong agonist (++), where column A is based on the % maximal [^3H]MK-801 binding relative to 1 mM glycine (−=0; <100%=+; and >100%=++); and column B is based on log EC50 values (0=−; ≥1×10^−9M (e.g., −8)=+; and <1×10^−9M (e.g., −10)=++).
# NMDAR2B = molecular target: T2, NMDAR2B (Homo sapiens, UniProt Q13224); test: [3H]MK-801 binding, NMDAR2B expressing HEK cell membranes; type: biochemical; conditions: 50 μM glutamate; for EC50: read-out: NMDAR2B B: log EC50 (converted); for Emax: read-out: NMDAR2B A: % maximal [3H]MK-801 binding relative to 1 mM glycine
# T2 construct: expressed in transfected cells; host or cells: HEK cells (membrane extract)
# In short: (§5)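 HEK membranes expressing NMDAR2A, 2B, 2C or 2D (300 μg protein) were preincubated 15 min at 25 °C with 50 μM glutamate and compound (1×10^−15–1×10^−7 M), then 15 min with 0.3 μCi [3H]MK-801 (nonequilibrium) before filtration. Baseline-subtracted binding was normalized to 1 mM glycine, yielding EC50 and % maximal activity.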
# [1] = test system: positive (hedonic) 50-kHz ultrasonic vocalizations (USVs); test: Positive emotional learning (PEL) test; type: in vivo, rats; conditions: rat, PO, 1 h after administration
# Protocol: Experiments were conducted as described in Burgdorf et al., “The effect of selective breeding for differential rates of 50-kHz ultrasonic vocalizations on emotional behavior in rats,” Devel. Psychobiol., 51:34-46 (2009). Rat 50-kHz ultrasonic vocalization (hedonic USVs) is a validated model for the study of positive affective state and is best elicited by rough-and-tumble play.
# The PEL assay measures the acquisition of positive (hedonic) 50-kHz ultrasonic vocalizations (USVs) to a social stimulus, heterospecific rough and tumble play stimulation. Heterospecific rough-and-tumble play stimulation was administered by the experimenter's right hand. One hour after administration of test compound or vehicle negative control (0.5% sodium carboxymethyl cellulose in 0.9% sterile saline vehicle), animals received 3 min of heterospecific rough-and-tumble play that consisted of alternating 15 sec blocks of heterospecific play and 15 sec of no-stimulation. High frequency ultrasonic vocalizations (USVs) were recorded and analyzed by sonogram with Avasoft SASlab Pro (Germany) as previously described by Burgdorf et al., “Positive emotional learning is regulated in the medial prefrontal cortex by GluN2B-containing NMDA receptors,” Neuroscience, 192:515-523 (2011). Frequency modulated 50-kHz US V s that occurred during each of the no-stimulation periods were quantified to measure PEL. Animals were not habituated to play stimulation before testing. Positive emotional learning was measured during the conditioned stimulus (CS) trials preceding the tickle unconditioned stimulus (UCS) trials. Animals received 15 second trials consisting of 6 CS and 6 UCS trials each (3 min total).
# The table below summarizes the findings. As each experiment includes its own vehicle group, an example (typical) vehicle score is shown. Max effect (mean number of 50 kHz USVs per 15 seconds) is reported as ∧: <6.0; *: 6.0-7.6; **: 7.7-10; ***: 10.1-20.
# NMDAR2D [2] = molecular target: T3, NMDAR2D (Homo sapiens, UniProt O15399); test: [3H]MK-801 binding, NMDAR2D expressing HEK cell membranes; type: biochemical; conditions: 50 μM glutamate
# T3 construct: expressed in transfected cells; host or cells: HEK cells (membrane extract)
# Protocol: as §1, §2, §3, §4
# [3] = Oral pharmacokinetics (plasma, brain, CSF); conditions: rat, per os, 10 mg/kg
# Protocol: Plasma, brain, and CSF samples were analyzed at various time points over a 24 hour period.
# NMDAR2A = molecular target: T4, NMDAR2A (Homo sapiens, UniProt Q12879); test: [3H]MK-801 binding, NMDAR2A expressing HEK cell membranes; type: biochemical; conditions: 50 μM glutamate; for EC50: read-out: NMDAR2A B: log EC50 (converted); for Emax: read-out: NMDAR2A A: % maximal [3H]MK-801 binding relative to 1 mM glycine
# T4 construct: expressed in transfected cells; host or cells: HEK cells (membrane extract)
# In short: as §5
# NMDAR2D [4] = molecular target: T5, NMDAR2D (Homo sapiens, UniProt O15399+Q05586); test: [3H]MK-801 binding, NMDAR2D expressing HEK cell membranes; type: biochemical; conditions: 50 μM glutamate, read-out: NMDAR2D B: log EC50 (converted)
# T5 construct: expressed in transfected cells; host or cells: HEK cells (membrane extract)
# Protocol: as §1, §2, §3, §4
# [5] = normal saline (compounds marked * in 1% NMP and 99% normal saline)
# [6] = plasma, normal saline (compounds marked * in 1% NMP and 99% normal saline)
# [7] = Sprague Dawley, in vivo, iv, read-out: C0
# [8] = Sprague Dawley, plasma, po, Tmax, normal saline (compounds marked * in 1% NMP and 99% normal saline)
# T1 sequence (Q14957 20-1233, species assumed, other chains not shown): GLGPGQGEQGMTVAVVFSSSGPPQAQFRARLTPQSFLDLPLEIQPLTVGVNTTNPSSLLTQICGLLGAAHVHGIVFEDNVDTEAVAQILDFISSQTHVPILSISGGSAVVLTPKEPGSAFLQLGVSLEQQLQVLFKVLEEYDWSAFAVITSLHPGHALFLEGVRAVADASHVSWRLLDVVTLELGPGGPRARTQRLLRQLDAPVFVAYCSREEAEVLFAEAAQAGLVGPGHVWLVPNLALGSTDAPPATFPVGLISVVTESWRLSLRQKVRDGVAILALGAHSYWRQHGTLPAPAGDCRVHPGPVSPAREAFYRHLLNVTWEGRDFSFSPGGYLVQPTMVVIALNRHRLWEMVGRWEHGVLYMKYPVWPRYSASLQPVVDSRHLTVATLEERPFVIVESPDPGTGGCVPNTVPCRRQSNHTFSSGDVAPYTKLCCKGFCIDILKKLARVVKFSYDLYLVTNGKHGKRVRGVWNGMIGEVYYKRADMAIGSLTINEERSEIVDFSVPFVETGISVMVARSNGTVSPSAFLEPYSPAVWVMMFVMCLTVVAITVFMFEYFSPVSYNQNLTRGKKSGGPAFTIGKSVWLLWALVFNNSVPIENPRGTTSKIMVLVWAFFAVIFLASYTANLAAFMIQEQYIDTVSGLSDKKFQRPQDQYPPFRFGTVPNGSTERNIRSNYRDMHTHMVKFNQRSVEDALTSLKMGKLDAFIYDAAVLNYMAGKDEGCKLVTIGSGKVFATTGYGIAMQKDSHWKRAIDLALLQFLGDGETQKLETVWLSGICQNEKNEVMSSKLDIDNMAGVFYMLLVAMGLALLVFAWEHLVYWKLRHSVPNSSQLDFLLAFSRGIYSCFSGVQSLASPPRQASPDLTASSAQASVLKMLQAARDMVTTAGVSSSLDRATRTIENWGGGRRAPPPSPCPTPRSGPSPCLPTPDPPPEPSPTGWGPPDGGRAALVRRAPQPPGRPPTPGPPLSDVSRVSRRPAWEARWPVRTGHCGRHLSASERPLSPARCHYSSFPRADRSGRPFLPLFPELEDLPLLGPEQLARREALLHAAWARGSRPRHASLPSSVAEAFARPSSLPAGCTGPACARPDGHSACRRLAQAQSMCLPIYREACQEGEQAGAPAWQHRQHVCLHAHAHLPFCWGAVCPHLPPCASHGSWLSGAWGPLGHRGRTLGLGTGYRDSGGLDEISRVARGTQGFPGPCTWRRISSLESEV
# T3 sequence (O15399 28-1336, species assumed, other chains not shown): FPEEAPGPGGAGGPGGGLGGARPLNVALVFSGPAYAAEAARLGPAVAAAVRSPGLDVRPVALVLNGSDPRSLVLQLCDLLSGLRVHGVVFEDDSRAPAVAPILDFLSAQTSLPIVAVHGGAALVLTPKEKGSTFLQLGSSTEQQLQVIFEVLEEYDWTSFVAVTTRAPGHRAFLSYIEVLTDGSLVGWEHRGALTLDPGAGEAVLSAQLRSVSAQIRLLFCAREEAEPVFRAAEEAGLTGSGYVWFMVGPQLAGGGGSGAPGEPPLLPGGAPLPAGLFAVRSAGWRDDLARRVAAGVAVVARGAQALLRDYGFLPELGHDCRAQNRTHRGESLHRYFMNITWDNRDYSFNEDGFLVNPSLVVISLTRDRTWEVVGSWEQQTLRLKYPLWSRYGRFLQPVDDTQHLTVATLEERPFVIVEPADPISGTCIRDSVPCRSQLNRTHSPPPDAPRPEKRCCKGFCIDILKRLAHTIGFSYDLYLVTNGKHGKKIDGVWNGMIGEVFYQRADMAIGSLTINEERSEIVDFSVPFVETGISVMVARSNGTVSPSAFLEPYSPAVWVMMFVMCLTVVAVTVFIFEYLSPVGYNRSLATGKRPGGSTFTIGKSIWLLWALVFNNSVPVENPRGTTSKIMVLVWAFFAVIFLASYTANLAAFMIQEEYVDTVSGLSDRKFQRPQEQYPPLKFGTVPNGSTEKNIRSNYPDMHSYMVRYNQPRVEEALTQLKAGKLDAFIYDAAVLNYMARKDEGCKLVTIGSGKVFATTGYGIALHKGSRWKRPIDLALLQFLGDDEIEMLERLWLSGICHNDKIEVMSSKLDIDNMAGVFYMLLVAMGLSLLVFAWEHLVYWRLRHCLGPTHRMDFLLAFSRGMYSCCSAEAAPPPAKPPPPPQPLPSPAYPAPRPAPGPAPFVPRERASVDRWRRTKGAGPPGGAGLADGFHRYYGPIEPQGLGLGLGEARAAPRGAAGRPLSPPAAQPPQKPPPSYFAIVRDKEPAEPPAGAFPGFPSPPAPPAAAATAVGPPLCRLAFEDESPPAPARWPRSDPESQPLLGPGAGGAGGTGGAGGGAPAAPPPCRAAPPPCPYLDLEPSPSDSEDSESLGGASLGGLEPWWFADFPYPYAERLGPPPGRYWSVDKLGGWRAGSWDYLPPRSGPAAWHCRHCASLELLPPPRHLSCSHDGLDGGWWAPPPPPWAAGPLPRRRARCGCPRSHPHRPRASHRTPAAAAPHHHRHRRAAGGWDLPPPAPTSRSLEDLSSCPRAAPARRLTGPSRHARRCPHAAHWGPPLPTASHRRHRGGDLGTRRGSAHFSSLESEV
# T2 sequence (Q13224 27-1484, species assumed, other chains not shown): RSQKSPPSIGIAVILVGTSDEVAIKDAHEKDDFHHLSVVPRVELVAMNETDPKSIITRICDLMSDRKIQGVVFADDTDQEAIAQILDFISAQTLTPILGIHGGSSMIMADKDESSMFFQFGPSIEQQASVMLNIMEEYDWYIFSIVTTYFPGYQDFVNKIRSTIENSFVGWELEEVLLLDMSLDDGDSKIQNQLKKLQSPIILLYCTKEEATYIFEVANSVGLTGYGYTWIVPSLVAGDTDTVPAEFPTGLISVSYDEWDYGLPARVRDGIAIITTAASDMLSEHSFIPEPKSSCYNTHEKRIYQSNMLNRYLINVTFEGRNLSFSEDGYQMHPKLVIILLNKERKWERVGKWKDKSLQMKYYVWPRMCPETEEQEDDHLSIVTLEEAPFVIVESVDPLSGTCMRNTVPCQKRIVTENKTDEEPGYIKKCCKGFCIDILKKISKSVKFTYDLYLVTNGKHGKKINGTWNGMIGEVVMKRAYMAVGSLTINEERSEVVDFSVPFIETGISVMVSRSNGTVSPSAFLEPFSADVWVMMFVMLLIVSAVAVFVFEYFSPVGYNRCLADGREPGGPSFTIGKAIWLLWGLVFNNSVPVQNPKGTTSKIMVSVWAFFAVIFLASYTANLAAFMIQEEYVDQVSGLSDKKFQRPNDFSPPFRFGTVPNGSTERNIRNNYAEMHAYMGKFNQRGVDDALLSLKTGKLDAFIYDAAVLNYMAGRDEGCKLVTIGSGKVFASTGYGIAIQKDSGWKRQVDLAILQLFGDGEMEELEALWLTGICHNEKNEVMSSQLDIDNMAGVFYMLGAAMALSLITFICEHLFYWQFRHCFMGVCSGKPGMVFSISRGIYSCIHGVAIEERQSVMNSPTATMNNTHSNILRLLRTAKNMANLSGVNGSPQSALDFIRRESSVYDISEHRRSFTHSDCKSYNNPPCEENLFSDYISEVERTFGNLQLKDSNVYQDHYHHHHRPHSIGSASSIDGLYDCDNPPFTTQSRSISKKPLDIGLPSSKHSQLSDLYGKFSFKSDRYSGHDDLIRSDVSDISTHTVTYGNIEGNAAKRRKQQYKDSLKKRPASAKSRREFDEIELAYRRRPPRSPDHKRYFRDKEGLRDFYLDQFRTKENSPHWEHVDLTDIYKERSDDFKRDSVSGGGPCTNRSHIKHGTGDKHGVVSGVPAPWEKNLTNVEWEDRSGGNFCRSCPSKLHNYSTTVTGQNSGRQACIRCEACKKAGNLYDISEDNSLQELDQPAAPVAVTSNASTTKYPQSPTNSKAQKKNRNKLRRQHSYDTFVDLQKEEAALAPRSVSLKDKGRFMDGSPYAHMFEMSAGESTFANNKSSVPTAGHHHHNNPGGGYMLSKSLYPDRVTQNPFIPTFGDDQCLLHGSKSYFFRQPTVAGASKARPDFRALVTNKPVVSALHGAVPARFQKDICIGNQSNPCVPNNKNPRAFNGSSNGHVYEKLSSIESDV
# T5 sequence (O15399 28-1336, species assumed, other chains not shown): as the sequence (O15399 28-1336, species assumed, other chains not shown) above
EC50 (NMDAR2B) [nM],EC50 (NMDAR2A) [nM],Emax (NMDAR2A) [%],Compound,AUClast (IV pharmacokinetics) [ng·h/mL],C0 (IV pharmacokinetics) [ng/mL],Cl (IV pharmacokinetics) [mL/min/kg],T1/2 (IV pharmacokinetics) [min],Vss (IV pharmacokinetics) [L/kg],NMDAR2C A: % maximal [3H]MK-801 binding relative to 1 mM glycine (NMDAR2C),EC50 (NMDAR2C) [nM],NMDAR2B A: % maximal [3H]MK-801 binding relative to 1 mM glycine (NMDAR2B),NMDAR2D A: % maximal [3H]MK-801 binding relative to 1 mM glycine (NMDAR2D [2]),% F [3] [%],CSF Cmax [3] [ng/mL],Brain Cmax [3] [ng/mL],"AUClast [3, 5] [ng·h/mL]","Tmax [3, 5] [min]","Cmax [3, 6] [ng/mL]",NMDAR2A A: % maximal [3H]MK-801 binding relative to 1 mM glycine (NMDAR2A),Max Effect (mean number of 50 kHz USVs per 15 seconds) ([1]; dose .1 mg/kg),also measured
< 1,> 1,< 100,"C[C@@H](O)[C@H](N)C(=O)N1CCNC2(CNC2=O)C1 (single isomer, unassigned) [EK-2, 8-(L-Threonyl)-2,5,8-Triazaspiro[3.5]Nonan-1-One]",,,,,,,,+ (<100%=+),,,81.6,,,60,1910.5,,* (*: 6.0-7.6),
< 1,> 1,< 100,"C[C@@H](O)[C@H](N)C(=O)N1CCN(C(=O)OC(C)(C)C)CC12CNC2=O (stereo partly drawn) [EC-2, Tert-Butyl 5-(L-Threonyl)-1-Oxo-2,5,8-Triazaspiro[3.5]Nonane-8-Carboxylate]",,,,,,,,,,,,,,,,,** (**: 7.7-10),Emax (NMDAR2B): > 100%
< 1,,0,"C[C@@H](O)[C@H](N)C(=O)N1CCN(Cc2ccccc2)C2(CNC2=O)C1 (single isomer, unassigned) [EL-1, 8-(L-Threonyl)-5-Benzyl-2,5,8-Triazaspiro[3.5]Nonan-1-One]",,,,,,,,,,,56.9,143,,,,,*** (***: 10.1-20),"AUC(0-t) (IV pharmacokinetics; Sprague Dawley, in vivo, iv): 4320 ng·h/mL; clearance (IV pharmacokinetics; Sprague Dawley, in vivo, iv): 7.35 mL/min/kg; half-life (IV pharmacokinetics; Sprague Dawley, in vivo, iv): 406 min; C0 (IV pharmacokinetics; [7]): 3250 ng/mL; Vd (IV pharmacokinetics; Sprague Dawley, in vivo, iv): 2.12 L/kg; Emax (NMDAR2B): < 100%; bioavailability ([3]; Sprague Dawley, plasma, po, % F): 90%; AUC(0-t) ([3]; Sprague Dawley, plasma, po, AUClast, normal saline (compounds marked * in 1% NMP and 99% normal saline)): 19400 ng·h/mL; Cmax ([3]; Sprague Dawley, plasma, po, Cmax, normal saline (compounds marked * in 1% NMP and 99% normal saline)): 4980 ng/mL; Tmax [3, 8]: 30 min"

# Further lines, the compound ahead of its results:
Compound,EC50 (NMDAR2B) [nM],EC50 (NMDAR2A) [nM],Emax (NMDAR2A) [%],AUClast (IV pharmacokinetics) [ng·h/mL],C0 (IV pharmacokinetics) [ng/mL],Cl (IV pharmacokinetics) [mL/min/kg],T1/2 (IV pharmacokinetics) [min],Vss (IV pharmacokinetics) [L/kg],NMDAR2C A: % maximal [3H]MK-801 binding relative to 1 mM glycine (NMDAR2C),EC50 (NMDAR2C) [nM],NMDAR2B A: % maximal [3H]MK-801 binding relative to 1 mM glycine (NMDAR2B),NMDAR2D A: % maximal [3H]MK-801 binding relative to 1 mM glycine (NMDAR2D [2]),% F [3] [%],CSF Cmax [3] [ng/mL],Brain Cmax [3] [ng/mL],"AUClast [3, 5] [ng·h/mL]","Tmax [3, 5] [min]","Cmax [3, 6] [ng/mL]",NMDAR2A A: % maximal [3H]MK-801 binding relative to 1 mM glycine (NMDAR2A),Max Effect (mean number of 50 kHz USVs per 15 seconds) ([1]; dose .1 mg/kg),also measured
"O=C1NCC12CNCCN2Cc1ccccc1 (single isomer, unassigned) [ED-2, 5-Benzyl-2,5,8-Triazaspiro[3.5]Nonan-1-One]",< 1,,,806.5,1793.2,40.6,32.4,1.45,+ (<100%=+),< 1,+ (<100%=+),+ (<100%=+),54,178.3,478.5,2178.53,15,1563.1,− (−=0),,Max Effect (mean number of 50 kHz USVs per 15 seconds) ([1]; dose .001-1 mg/kg): *** (***: 10.1-20); EC50 (NMDAR2D [2]; read-out: NMDAR2D B: log EC50 (converted)): < 1 nM
"CN1CCN(Cc2ccccc2)C2(CNC2=O)C1 (single isomer, unassigned) [EG-1, 5-Benzyl-8-Methyl-2,5,8-Triazaspiro[3.5]Nonan-1-One]",< 1,< 1,,622.05,2010.43,53.51,25.8,0.96,++ (>100%=++),> 1,+ (<100%=+),− (−=0),14,367.18,334.3,428.79,15,700.4,+ (<100%=+),,Max Effect (mean number of 50 kHz USVs per 15 seconds) ([1]; dose .001-1 mg/kg): *** (***: 10.1-20)
"CN1CCN(Cc2ccccc2)C2(CNC2=O)C1 (single isomer, unassigned) [EG-2, 5-Benzyl-8-Methyl-2,5,8-Triazaspiro[3.5]Nonan-1-One]",,,,,,,,,+ (<100%=+),< 1,− (−=0),+ (<100%=+),100,,,3082.39,,3526.63,− (−=0),,"AUC(0-t) (IV pharmacokinetics; Sprague Dawley, in vivo, iv): 400 ng·h/mL; clearance (IV pharmacokinetics; Sprague Dawley, in vivo, iv): 83.3 mL/min/kg; half-life (IV pharmacokinetics; Sprague Dawley, in vivo, iv): 28.8 min; C0 (IV pharmacokinetics; [7]): 1100 ng/mL; Vd (IV pharmacokinetics; Sprague Dawley, in vivo, iv): 1.87 L/kg; EC50 (NMDAR2D [4]): < 1 nM; Tmax [3, 8]: 15 min"
